From patent US9840522B2, “Multi-modal bioprobe for bladder cancer imaging and photodynamic therapy” (Hong Kong Baptist University, priority 2014, dated 2017)

Test system: xenograft tumor (T24 bladder cancer cells)
Experiment: In vivo magnetic resonance imaging after tail vein injection
Design: species or system mice
Conditions: MRI immediately
Method: After tail vein injection of Gd-3-R1 and Gd-DOTA into the mice, MRI experiment is conducted immediately.

O=C([O-])CN1CCN(CC(=O)[O-])CCN(CC(=O)O)CCN(CC(=O)[O-])CC1.[Gd+3] [Gd-DOTA]
MRI contrast effect on xenograft tumor: enhances the whole body signal without selectivity toward the tumor
